In data set [1] the target is neuronal nicotinic cholinergic channels in IMR-32 cells (Homo sapiens, UniProt P30926+P32297). Put plainly: 86Rb+ efflux in IMR-32 cells (activation, or inhibition of efflux elicited by (S)-nicotine). It counts as cell-based. The following applies: for inhibition at 1 µM / inhibition at 10 µM / Emax: IMR-32; for inhibition at 10 µM: single dose 10 μM; for Emax: read-out: IMR-32 maximal response. An excerpt: For the purpose of directly evaluating the ability of test compounds to functionally activate or inhibit certain subtypes of neuronal nicotinic cholinergic channels, an assay to determine ^86Rb^+Efflux in IMR-32 cells was employed (Protocol B below).
B. Protocols for the Determination of Functional Effects of Cholinerzic Channel Receptor Ligands on Synaptic Transmission
Cells of the IMR-32 human neuroblastoma clonal cell line (ATCC, Rockville, Md.) were maintained in a log phase of growth according to established procedures (Lukas, 1993). Experimental cells were seeded at a density of 500,000 cells/ml into a 24-well tissue culture dish. Plated cells were allowed to proliferate for at least 48 hours before loading with 2 μCi/ml of ^86Rb^+ (35 Ci/mmol) overnight at 37° C. The ^86Rb^+ efflux assays were performed according to previously published protocols (Lukas, R. J., J. Pharmacol. Exp. Ther., 265: 294-302, 1993) except serum-free Dulbecco's Modified Eagle's Medium was used during the ^86Rb^+ loading, rinsing, and agonist-induced efflux steps.
EC50 data and maximal responses (reported as percent relative to the response elicited by 100 μM (S)-nicotine) are shown for selected compounds of the invention. The inhibition data (given for a larger number of compounds) reflect inhibition of the efflux elicited by 100 μM (S)-nicotine for either a single dose (% inhibition at 1 μM or at 10 μM) or over a range of doses (IC50 of inhibition). […] This finding is in agreement with the results of others who have linked dopamine release, which is dependent upon the ion flux in synaptic transmission, to binding at nicotinic receptors (cf., for example, Lippiello and Caldwell, U.S. Pat. No. 5,242,935, issued Sep. 7, 1993; Caldwell and Lippiello, U.S. Pat. No. 5,248,690, issued Sep. 28, 1993; and Wonnacott et al., Prog. Brain Res., 79: 157-163 (1989)).

[2] abbreviates: inhibition of the efflux elicited by 100 μM (S)-nicotine, single dose 1 μM.
The mark [3] stands for this setting: inhibition of the efflux elicited by 100 μM (S)-nicotine.
Setting [4] is: 86Rb+ efflux, percent relative to the response elicited by 100 μM (S)-nicotine.

The inhibition is the relative decrease from the control value, in per cent. Read a low inhibition as a response near the control. By melting point is commonly meant the temperature, or range, at which the solid turns liquid.

The structures appear in SMILES notation. Counter-ions that a name gives are not always drawn.

`CN1CCC[C@H]1COc1cncc(C=CC=CC(C)(C)C)c1.Cl.Cl` [Example 30, 5-(5,5-Dimethyl-1,3-hexadienyl)-3-(1-methyl-2-(S)-pyrrolidinylmethoxy)pyridine Dihydrochloride] displayed a melting point of 148 to 150 °C. In data set [1] (setting [2]), the inhibition at 1 µM came to 21%. The same compound displayed an inhibition at 10 µM in data set [1] (setting [3]) of 90%. With `CCCC(=O)C=Cc1cncc(OC[C@@H]2CCCN2C)c1` [Example 22, 5-(3-oxo-1-Hexenyl)-3-(1-methyl-2-(S)-pyrrolidinylmethoxy)pyridinine Dihydrochloride], in data set [1] (setting [2]), the inhibition at 1 µM was found to be 44%. In the case of `Cl.Cl.Cl.c1cc(CCc2cncc(OC[C@H]3CCCN3)c2)ccn1` [Example 87, 5-(2-(4-Pyridinyl)ethyl)-3-(2-(R)-pyrrolidinylmethoxy)pyridine Trihydrochloride], the melting point was in the range of 178 to 180 °C. In data set [1] (setting [4]), the Emax is 40%.

On to `COC(=O)C=Cc1cncc(OC[C@@H]2CCCN2C)c1` [Example 16, 5-(2-(Methoxycarbonyl)ethenyl-3-(1-methyl-2-(S)-pyrrolidinylmethoxy)pyridine Dihydrochloride], for which the inhibition at 1 µM in data set [1] (setting [2]) was 6%. Same read-out and setting: next, `CCCCCCC#Cc1cncc(OC[C@@H]2CCCN2C)c1` [Example 49, 5-Octynyl-3-(1-methyl-2-(S)-pyrrolidinylmethoxy)pyridine Dihydrochloride]: 33%. Consider `CN1CC[C@H]1COc1cncc(-c2ccccc2)c1.Cl.Cl` [Example 57, 5-Phenyl-3-(1-methyl-2-(S)-azetidinylmethoxy)pyridine Dihydrochloride], for which the melting point is 120 to 122 °C. In data set [1] (setting [2]), this compound registered an inhibition at 1 µM of 21%. The compound `C=Cc1cc(OC[C@@H]2CCCN2)cnc1Cl.Cl` [Example 191, 6-Chloro-5-ethenyl-3-(2-(S)-pyrrolidinylmethoxy)pyridine Hydrochloride] had a melting point of 195 to 197 °C. In addition, the Emax in data set [1] (setting [4]) is 106%. For `CN1CCC[C@H]1COc1cncc(C#CCCCCO)c1` [Example 28, 5-(6-Hydroxy-1-hexynyl)-3-(1-methyl-2-(S)-pyrrolidipylmethoxy)pyridine Dihydrochloride], in data set [1] (setting [2]), the inhibition at 1 µM amounted to 20%. Consider `C=CCc1cc(OC[C@@H]2CCCN2)cnc1Cl` [Example 183, 5-Allyl-6-chloro-3-(2-(S)-pyrrolidinylmethoxy)pyridine Hydrochloride], for which the Emax in data set [1] (setting [4]) was 110%.

Consider `C=CCc1cncc(OC[C@@H]2CCN2)c1` [Example 181, 5-Allyl-3-(2-(S)-azetidinylmethoxy)pyridine Hydrochloride], for which the Emax in data set [1] (setting [4]) worked out at 82%. Still for that read-out and setting: to `O=C(NCc1cc(OC[C@@H]2CCN2)cnc1Cl)c1ccccc1` [Example 92, 3-(2-(S)-Azetidinylmethoxy)-5-(N-benzoylamino)methyl-6-chloropyridine Hydrochloride] belongs 25%. In turn, `CN1CCC[C@H]1COc1cncc(-c2cncnc2)c1.Cl.Cl` [Example 25, 5-(5-Pyrimidinyl)-3-(1-methyl-2-(S)-pyrrolidinylmethoxy)pyridine Dihydrochloride] yielded a melting point of 205 to 220 °C. Besides, the Emax in data set [1] (setting [4]) amounted to 4.5%. As for `CN1CCC[C@@H]1COc1cnc(Cl)c(-c2ccccc2)c1` [Example 69, 5-Phenyl-6-chloro-3-(1-methyl-2-(R)-pyrrolidinylmethoxy)pyridine Dihydrochloride], the Emax in data set [1] (setting [4]) was determined as 6%.

Take `CC(=O)NCc1cc(OC[C@@H]2CCN2)cnc1Cl` [Example 206, 5-Acetamidomethyl-3-(2-(S)-azetidinylmethoxy)-6-chloropyridine Dihydrochloride]: the Emax in data set [1] (setting [4]) turned out to be 11%. The same measure, in the same setting: next, `Clc1ncc(OC[C@@H]2CCN2)cc1-c1ccccc1` [Example 67, 5-Phenyl-6-chloro-3-(2-(S)-azetidinylmethoxy)pyridine Hidrochloride]: 90%. On to `Cc1ccc(C#Cc2cncc(OC[C@@H]3CCCN3C)c2)cc1.Cl.Cl` [Example 48, 5-(2-(4-Methylphenyl)ethynyl)-3-(1-methyl-2-(S)-pyrrolidinylmethoxy)pyridine Dihydrochloride], for which the melting point lay in the range of 197 to 199 °C. The compound also displayed an inhibition at 1 µM in data set [1] (setting [2]) of 40%. As to `COC(=O)CCc1cncc(OC[C@@H]2CCCN2C)c1` [Example 15, 5-(2-(Methoxycarbonyl)ethyl)-3-(1-methyl-2-(S)-pyrrolidinylmethoxy)pyridine Dihydrochloride], 1 µM produced 16% inhibition in data set [1] (setting [2]). Further, testing at 10 µM in data set [1] (setting [3]) gave an inhibition of 83%. In turn, `Cl.Cl.c1ccc(-c2cncc(OC[C@@H]3CCCN3)c2)cc1` [Example 51, 5-Phenyl-3-(2-(S)-pyrrolidinylmethoxy)pyridine Dihydrochloride] had a melting point of 134 to 136 °C. In data set [1] (setting [2]), this compound yielded an inhibition at 1 µM of 42%. As to `CN1CCC[C@H]1COc1cncc(C#CC(C)(C)C)c1` [Example 47, 5-(3,3-Dimethylbutynyl)-3-(1-methyl-2-(S)-pyrrolidinylmethoxy)pyridine Dihydrochloride], in data set [1] (setting [2]), 1 µM produced 66% inhibition. Take `c1csc(-c2cncc(OC[C@@H]3CCN3)c2)c1` [Example 154, 3-(2-(S)-Azetidinylmethoxy)-5-(2-thienyl)pyridine Dihydrochloride]: the Emax in data set [1] (setting [4]) turned out to be 1.5%. As for `CN1CCC[C@H]1COc1cncc(C#CCCCc2ccccc2)c1` [Example 17, 5-(5-Phenyl-1-pentynyl)-3-(1-methyl-2-(S)-pyrrolidinylmethoxy)pyridine Dihydrochloride], in data set [1] (setting [2]), at 1 µM the inhibition was 32%. Moreover, the inhibition at 10 µM in data set [1] (setting [3]) was found to be 100%. In turn, `Cl.Cl.Clc1ncc(OC[C@@H]2CCCN2)cc1C=Cc1ccncc1` [Example 33, 5-(2-(4-Pyridinyl)ethenyl)-6-chloro-3-(2-(S)-pyrrolidinylmethoxy)pyridine Dihydrochloride] returned a melting point of 235 to 240 °C. For the same compound, the Emax in data set [1] (setting [4]) stood at 47%.

As for `CN1CCC[C@H]1COc1cnc(Cl)c(-c2ccccc2)c1.Cl.Cl` [Example 26, 5-Phenyl-6-chloro-3-(1-methyl-2-(S)-pyrrolidinylmethoxy)pyridine Dihydrochloride], the melting point lay in the range of 180 to 183 °C. Also, 1 µM produced 47% inhibition in data set [1] (setting [2]). In the case of `CN1CCC[C@H]1COc1cncc(C=Cc2ccncc2)c1` [Example 13, 5-(2-(4-Pyridinyl)ethenylyl)-3-((1-methyl-2-(S)-pyrrolidinylmethoxy)pyridine Triihydrochloride], the inhibition at 1 µM in data set [1] (setting [2]) was determined as 50%.

In the case of `C(=C\c1cncc(OC[C@H]2CCCN2)c1)/c1ccncc1` [Example 86, 5-(2-(4-Pyridinyl)ethenyl)-3-(2-(R)-pyrroylidinylmethoxy)pyridine Trihydrochloride], the Emax in data set [1] (setting [4]) was 44%. For `Cl.Cl.Clc1ncc(OC[C@@H]2CCCN2)cc1-c1ccccc1` [Example 84, 5-Phenyl-6-chloro-3-(2-(S)-pyrrolidinylmethoxy)pyridine Dihydrochloride], the melting point lay in the range of 75 to 80 °C. In addition, the Emax in data set [1] (setting [4]) turned out to be 37%.

With `Clc1ncc(OC[C@H]2CCCN2)cc1C=Cc1ccncc1` [Example 81, 5-(2-(4-Pyridinyl)ethenyl)-6-chloro-3-(2-(R)-pyrrolidinylmethoxy)pyridine Dihydrochloride], the Emax in data set [1] (setting [4]) was determined as 32%.

In data set [1] (setting [2]), `CN1CCC[C@H]1COc1cncc(C#CCCCC#N)c1` [Example 14, (5-(5-Cyano-1-pentynyl-3-(1-methyl-2-(S)-pyrrolidinylmethoxy)pyridine Dihydrochloride] yielded an inhibition at 1 µM of 50%.

For `Cl.Cl.c1ccc(-c2cncc(OC[C@@H]3CCN3)c2)cc1` [Example 56, 5-Phenyl-3-(2-(S)-azetidinylmethoxy)pyridine Dihydrochloride], the IMR-32 maximal response in data set [1] (setting [4]) was 20%. Besides, in data set [1] (setting [2]), the “% Inhibition @ 1 μM” value amounted to 16%.

The compound `Cl.Cl.Clc1ncc(OC[C@@H]2CCCN2)cc1Br` [Example 23, 5-Bromo-6-chloro-3-(2-(S)-pyrrolidinylmethoxy)pyridine Dihydrochloride] came in with a melting point of 264 to 268 °C. For the same compound, the inhibition at 1 µM in data set [1] (setting [2]) came to 27%. For the compound `CCCCC#Cc1cncc(OC[C@@H]2CCCN2C)c1` [Example 4, 5-Hexynyl-3-(1-methyl-2-(S)-pyrrolidinylmethoxy)pyridine Dihydrochloride], testing at 1 µM in data set [1] (setting [2]) gave an inhibition of 55%. Turning to `Clc1ncc(OC[C@@H]2CCN2)cc1C=Cc1ccncc1` [Example 89, 5-(2-(4-Pyridinyl)ethenyl)-6-chloro-3-(2-(S)-azetidnylmethoxy)pyridine Citric Acid Salt], the Emax in data set [1] (setting [4]) stood at 72%. As for `C=Cc1cncc(OC[C@@H]2CCCN2)c1.Cl.Cl` [Example 164, 5-Ethenyl-3-(2-(S)-pyrrolidinylmethoxy)pyridine Dihydrochloride], the melting point is 97 °C (dec.).
